Experimental data taken from US10323063B2, “Advanced macromolecule transduction domain (aMTD) sequences for improvement of cell-permeability, polynucleotides encoding the same, method to identify the unique features of aMTDs comprising the same, method to develop the aMTD sequences comprising the same” (CELLIVERY THERAPEUTICS, INC., priority 2014, dated 2019).

System: RAW 264.7 cells
Assay: Quantitative cell-permeability of FITC-labeled aMTD- or rPeptide-fused CRA recombinant proteins by flow cytometry
Format: cell-based
Details: for Relative Ratio to aMTD AVE: cell-permeability of rPeptide relative to the average of 240 aMTDs
Source text: The aMTDs and rPeptides were fluorescently labeled and compared based on the critical factors for cell-permeability by using flow cytometry and confocal laser scanning microscopy (FIG. 5 to 8). The cellular uptake of the peptide-fused non-functional cargo recombinant proteins could quantitatively be evaluated in flow cytometry, while confocal laser scanning microscopy allows intracellular uptake to be assessed visually. The analysis included recombinant proteins fused to a negative control [rP38] that has opposite characteristics (hydrophilic and aromatic sequence: YYNQSTCGGQCY) to the aMTDs (hydrophobic and aliphatic sequences). Relative cell-permeability (relative fold) of aMTDs to the negative control was also analyzed (TABLE 39 and FIG. 9).
Geometric means of negative control (histidine-tagged rP38-fused CRA recombinant protein) subtracted by that of naked protein (histidine-tagged CRA protein) lacking any peptide (rP38 or aMTD) was standardized as relative fold of 1.
For quantitative cell-permeability, the aMTD- or rPeptide-fused recombinant proteins were conjugated to fluorescein isothiocyanate (FITC) according to the manufacturer's instructions (Sigma-Aldrich, St. Louis, Mo.). RAW 264.7 cells were treated with 10 μM FITC-labeled recombinant proteins for 1 hour at 37° C., washed three times with cold PBS, treated with 0.25% tripsin/EDTA (Sigma-Aldrich, St. Louis, Mo.) for 20 minutes at 37° C. to remove cell-surface bound proteins. Cell-permeability of these recombinant proteins were analyzed by flow cytometry (Guava, Millipore, Darmstadt, Germany) using the FlowJo cytometric analysis software (FIG. 5 to 6). The relative cell-permeability of aMTDs were measured and compared with the negative control (rP38) and reference hydrophobic CPPs (MTM12 and MTD85) (TABLE 47).

[1] = cell-permeability of aMTD-fused CRA recombinant protein relative to negative control (A: rP38)
[2] = cell-permeability of aMTD-fused CRA recombinant protein relative to reference CPP (B: MTM12)
[3] = cell-permeability of aMTD-fused CRA recombinant protein relative to reference CPP (C: MTD85)
[4] = cell-permeability relative to reference CPP MTM12 (B type)
[5] = cell-permeability relative to reference CPP MTD85 (C type)

503 (AAIIIVLPAALP; Advanced Macromolecule Transduction Domain (aMTD) Sequences for Improvement of Cell-Permeability) [compound 503]
Relative Ratio (Fold) A [1]: 17.6 Fold
Relative Ratio (Fold) B [2]: 11.8 Fold
Relative Ratio (Fold) C [3]: 5.9 Fold

543 (LLAALIAPAALP; Advanced Macromolecule Transduction Domain (aMTD) Sequences for Improvement of Cell-Permeability) [compound 543]
Relative Ratio (Fold) B [4]: 7.8 Fold

563 (ALAVIVVPALAP; Advanced Macromolecule Transduction Domain (aMTD) Sequences for Improvement of Cell-Permeability) [compound 563]
Relative Ratio (Fold) A [1]: 47.1 Fold
Relative Ratio (Fold) B [2]: 31.4 Fold
Relative Ratio (Fold) C [3]: 15.9 Fold

606 (AAAIAAIPIIIP) [compound 606]
Relative Ratio to aMTD AVE: 0.20

625 (ILAAAAAPLIVP; Advanced Macromolecule Transduction Domain (aMTD) Sequences for Improvement of Cell-Permeability) [compound 625]
Relative Ratio (Fold) A [1]: 20.9 Fold

705 (IVAVALLPALAP; Advanced Macromolecule Transduction Domain (aMTD) Sequences for Improvement of Cell-Permeability) [compound 705]
Relative Ratio (Fold) A [1]: 28.6 Fold

747 (VALLAIAPALAP; Advanced Macromolecule Transduction Domain (aMTD) Sequences for Improvement of Cell-Permeability) [compound 747]
Relative Ratio (Fold) A [1]: 22.0 Fold
Relative Ratio (Fold) B [2]: 14.8 Fold
Relative Ratio (Fold) C [3]: 7.5 Fold

772 (LPVAPVIPIIVP) [compound 772]
Relative Ratio to aMTD AVE: 0.16

787 (AVALVPVIVAAP; Advanced Macromolecule Transduction Domain (aMTD) Sequences for Improvement of Cell-Permeability) [compound 787]
Relative Ratio (Fold) A [1]: 29.3 Fold
Relative Ratio (Fold) B [2]: 19.6 Fold
Relative Ratio (Fold) C [3]: 9.9 Fold

808 (LVVLAAAPLAVP; Advanced Macromolecule Transduction Domain (aMTD) Sequences for Improvement of Cell-Permeability) [compound 808]
Relative Ratio (Fold) A (cell-permeability of aMTD-fused CRA recombinant protein relative to negative control rP38 (A type)): 11.5 Fold
Relative Ratio (Fold) C [5]: 3.9 Fold
Relative Ratio (Fold) B [4]: 7.6 Fold

825 (IVAVIVAPAVAP; Advanced Macromolecule Transduction Domain (aMTD) Sequences for Improvement of Cell-Permeability) [compound 825]
Relative Ratio (Fold) C [3]: 23.6 Fold

826 (LVALAAPIIAVP; Advanced Macromolecule Transduction Domain (aMTD) Sequences for Improvement of Cell-Permeability) [compound 826]
Relative Ratio (Fold) C [3]: 16.6 Fold

849 (AVILLAPLIAAP; Advanced Macromolecule Transduction Domain (aMTD) Sequences for Improvement of Cell-Permeability) [compound 849]
Relative Ratio (Fold) C [5]: 2.8 Fold

877 (VAIIAVPAVVAP; Advanced Macromolecule Transduction Domain (aMTD) Sequences for Improvement of Cell-Permeability) [compound 877]
Relative Ratio (Fold) A [1]: 14.0 Fold
Relative Ratio (Fold) B [2]: 9.4 Fold
Relative Ratio (Fold) C [3]: 4.7 Fold
